As a reminder, the pKi is the negative decadic logarithm of the Ki, by convention in mol/L. Read a low pKi as a large Ki.

Drawing on BindingDB's records for doi:10.1016/s0167-0115(98)00049-4 (Uppsala University, 1998), this text covers Ki for six molecules.

pKi: −log10 of the molar value. Non-standard residues stand in square brackets, D forms with d. Residues, ends and D or L forms follow the SMILES beside them. Ahx = NCCCCCC(=O)O

The assay has as its target T1, Neuropeptide Y receptor type 2 (Cavia porcellus, UniProt Q9Z2D5).
T1 sequence (Q9Z2D5 whole entry): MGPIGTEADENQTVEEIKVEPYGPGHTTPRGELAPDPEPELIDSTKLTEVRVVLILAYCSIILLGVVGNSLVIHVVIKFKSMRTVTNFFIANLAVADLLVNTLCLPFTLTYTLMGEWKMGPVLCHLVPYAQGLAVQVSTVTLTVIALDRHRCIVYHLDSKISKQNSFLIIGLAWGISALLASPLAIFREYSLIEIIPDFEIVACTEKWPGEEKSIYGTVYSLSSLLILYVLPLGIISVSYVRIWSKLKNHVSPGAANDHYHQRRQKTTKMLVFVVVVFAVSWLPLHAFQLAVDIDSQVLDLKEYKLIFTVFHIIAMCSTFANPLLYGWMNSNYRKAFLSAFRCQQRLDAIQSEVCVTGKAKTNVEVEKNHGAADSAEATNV
On to `CC[C@H](C)[C@H](NC(=O)[C@H](Cc1ccc(O)cc1)NC(=O)[C@H](Cc1cnc[nH]1)NC(=O)[C@H](CCCNC(=N)N)NC(=O)CCCCCNC(=O)[C@H](CCCCN)NC(=O)[C@H](CO)NC(=O)[C@@H]1CCCN1C(=O)[C@@H](N)Cc1ccc(O)cc1)C(=O)N[C@@H](CC(N)=O)C(=O)N[C@@H](CC(C)C)C(=O)N[C@H](C(=O)N[C@H](C(=O)N[C@@H](CCCNC(=N)N)C(=O)N[C@@H](CCC(N)=O)C(=O)N[C@@H](CCCNC(=N)N)C(=O)N[C@@H](Cc1ccc(O)cc1)C(N)=O)[C@@H](C)O)[C@@H](C)CC` [NPY5-24, Ahx] (H-YPSK[Ahx]RHYINLITRQRY-NH2), for which the pKi is 9.74.
The molecule `CC[C@H](C)[C@H](NC(=O)[C@H](Cc1ccc(O)cc1)NC(=O)[C@H](Cc1c[nH]cn1)NC(=O)[C@H](CCCNC(=N)N)NC(=O)[C@H](CC(C)C)NC(=O)[C@H](C)NC(=O)[C@H](CO)NC(=O)[C@H](Cc1ccc(O)cc1)NC(=O)CCCCCNC(=O)[C@H](CC(N)=O)NC(=O)[C@H](CC(=O)O)NC(=O)[C@@H]1CCCN1C(=O)[C@H](CCCCN)NC(=O)[C@H](CO)NC(=O)[C@@H]1CCCN1C(=O)[C@@H](N)Cc1ccc(O)cc1)C(=O)N[C@@H](CC(N)=O)C(=O)N[C@@H](CC(C)C)C(=O)N[C@H](C(=O)N[C@H](C(=O)N[C@@H](CCCNC(=N)N)C(=O)N[C@@H](CCC(N)=O)C(=O)N[C@@H](CCCNC(=N)N)C(=O)N[C@@H](Cc1ccc(O)cc1)C(N)=O)[C@@H](C)O)[C@@H](C)CC` [NPY8-20, Ahx] (H-YPSKPDN[Ahx]YSALRHYINLITRQRY-NH2) showed a pKi of 9.93. The pKi values of the last two molecules are within 0.2 log units of each other.
The value for `CC[C@H](C)[C@H](NC(=O)[C@H](Cc1ccc(O)cc1)NC(=O)[C@H](Cc1cnc[nH]1)NC(=O)[C@H](CCCNC(=N)N)NC(=O)[C@H](CC(C)C)NC(=O)[C@H](C)NC(=O)[C@H](CO)NC(=O)[C@H](Cc1ccc(O)cc1)NC(=O)CCCCCNC(=O)[C@H](CC(N)=O)NC(=O)[C@H](CC(=O)O)NC(=O)[C@@H]1CCCN1C(=O)[C@H](CCCCN)NC(=O)[C@H](CO)NC(=O)[C@@H]1CCCN1C(=O)[C@@H](N)Cc1ccc(O)cc1)C(=O)N[C@@H](CC(N)=O)C(=O)N[C@@H](CC(C)C)C(=O)N[C@H](C(=O)N[C@H](C(=O)N[C@@H](CCCNC(=N)N)C(=O)N1CCC[C@H]1C(=O)N[C@@H](CCCNC(=N)N)C(=O)N[C@@H](Cc1ccc(O)cc1)C(N)=O)[C@@H](C)O)[C@@H](C)CC` [NPY8-20, Pro34, Ahx] (H-YPSKPDN[Ahx]YSALRHYINLITRPRY-NH2) was 7.07.
The value for `CC[C@H](C)[C@H](NC(=O)[C@H](Cc1ccc(O)cc1)NC(=O)[C@H](Cc1cnc[nH]1)NC(=O)[C@H](CCCN=C(N)N)NC(=O)[C@H](CC(C)C)NC(=O)[C@H](C)NC(=O)[C@@H](N)CO)C(=O)N[C@@H](CC(N)=O)C(=O)N[C@@H](CC(C)C)C(=O)N[C@H](C(=O)N[C@H](C(=O)N[C@@H](CCCN=C(N)N)C(=O)N[C@@H](CCC(N)=O)C(=O)N[C@@H](CCCN=C(N)N)C(=O)N[C@@H](Cc1ccc(O)cc1)C(N)=O)[C@@H](C)O)[C@@H](C)CC` [NPY22-36, rat, human] was 9.87; that for “H-APLEPEYPGDNATPEQMAQYAAELRRYINMLTRPRY-NH2 [CAS_59763-91-6]” was 6.00; that for “H-INPIYRLRY-NH2 [NPY 28-36, [P30, Y32, L34]]” was 6.53.
